{"source": "patent US11242340B2", "about": "“Crystal forms of demethyleneberberine hydrochloride and preparation method therefor” (priority 2018, dated 2022)", "key": {"[1]": {"assay": "Determination of blood concentration in rats after ig administration", "type": "in vivo", "conditions": "male SD rats, ig 200 mg/kg, plasma, hydrochloride", "protocol": "Male SD rats are adaptively bred for 3 days, and rats having (220±20) g body weight are selected and divided into 5 groups, namely, blank group, demethyleneberberine hydrochloride crystal form A group, demethyleneberberine hydrochloride crystal form B group, demethyleneberberine hydrochloride crystal form C group and demethyleneberberine hydrochloride crystal form D group. Food supply is stopped for 12 h for gastric emptying before the experiment. For the rats in the experimental groups, ig (intragastric) administration dosage is 200 mg/kg. 0.2 ml of blood is taken from the orbits of the rats at 5 min., 15 min., 30 min., 1 h, 2 h, 6 h and 12 h respectively after ig administration, the whole blood is centrifuged, and 100 μl of plasma is taken and frozen at −20° C. for use later. 100 μl of plasma sample is taken, 200 μl of methanol is added into the plasma sample, the mixture is vortexed for 5 min., and then centrifuged at 10,000 r/min. for 15 min. in a centrifuge; the supernatant is taken and tested by HPLC. […] Through calculation on the basis of the experimental results, it is determined: DAUC=3.675 μg×ml^−1×h>AAUC=1.247 μg×ml^−1×h>BAUC=1.150 μg×ml^−1×h>CAUC=1.077 μg×ml^−1×h."}, "[2]": {"assay": "Solubility in ethanol system at different temperatures, HPLC", "type": "physicochemical", "conditions": "FIG. 15, hydrochloride", "procedure": "Demethyleneberberine hydrochloride crystals A, B, C and D are taken in an appropriate amount and the solubility of demethyleneberberine hydrochloride crystals A, B, C and D at different temperatures in an ethanol system is studied respectively. 20 μl of sample is taken at each temperature node and detected by HPLC."}, "[3]": {"assay": "Stability in high-humidity experiment (RH90±5%)", "type": "physicochemical", "excerpt": "Demethyleneberberine hydrochloride crystals A, B, C and D are taken in an appropriate amount and placed in plates numbered as A2, B2, C2 and D2 respectively, and then the plates are placed in a high-humidity environment at RH90±5% respectively for stability test."}, "[4]": {"assay": "Stability in high-temperature experiment (60±2° C.)", "type": "physicochemical", "protocol": "Demethyleneberberine hydrochloride crystals A, B, C and D are taken in an appropriate amount and placed in plates numbered as A1, B1, C1 and D1 respectively, and then the plates are placed in a high-temperature environment at 60±2° C. respectively for stability test."}, "[5]": {"assay": "Solubility in methanol system at different temperatures, HPLC", "type": "physicochemical", "conditions": "FIG. 14, hydrochloride", "procedure": "Demethyleneberberine hydrochloride crystals A, B, C and D are taken in an appropriate amount and the solubility of demethyleneberberine hydrochloride crystals A, B, C and D at different temperatures in a methanol system is studied respectively. 20 μl of sample is taken at each temperature node and detected by HPLC."}, "[6]": {"assay": "Solubility in water system at different temperatures, HPLC", "type": "physicochemical", "conditions": "hydrochloride", "procedure": "Demethyleneberberine hydrochloride crystals A, B, C and D are taken in an appropriate amount and the solubility of demethyleneberberine hydrochloride crystals A, B, C and D at different temperatures in a water system is studied respectively. 20 μl of sample is taken at each temperature node and detected by HPLC."}, "[7]": {"assay": "Stability in strong light irradiation experiment (4,500 lx±500 lx)", "type": "physicochemical", "excerpt": "Demethyleneberberine hydrochloride crystals A, B, C and D are taken in an appropriate amount and placed in plates numbered as A3, B3, C3 and D3 respectively, and then the plates are placed in a strong light irradiation environment at 4,500 lx±500 lx respectively for stability test."}, "[8]": {"conditions": "day 0, listed as C2, hydrochloride"}, "[9]": {"conditions": "day 5, listed as C2, hydrochloride"}, "[10]": {"conditions": "day 10, listed as C2, hydrochloride"}, "[11]": {"conditions": "60±2° C., day 0, listed as C1, hydrochloride"}, "[12]": {"conditions": "60±2° C., day 5, listed as C1, hydrochloride"}, "[13]": {"conditions": "60±2° C., day 10, listed as C1, hydrochloride"}, "[14]": {"conditions": "day 0, listed as C3, hydrochloride"}, "[15]": {"conditions": "day 5, listed as C3, hydrochloride"}, "[16]": {"conditions": "day 10, listed as C3, hydrochloride"}}, "note": "Entries after “also recorded” stand apart in the source; their conditions may differ. Where a name gives a salt, the structure may show the parent alone."}
{"compound": "COc1ccc2cc3[n+](cc2c1OC)CCc1cc(O)c(O)cc1-3", "note": "[crystal form C, demethyleneberberine hydrochloride]", "values": [{"measurement": "AUC", "setting": "[1]; calculated from the experimental results", "result": 1077, "unit": "ng·h/mL"}, {"measurement": "Cmax", "setting": "[1]", "result": 1262, "unit": "ng/mL"}, {"measurement": "tmax", "setting": "[1]", "result": 30, "unit": "min"}, {"measurement": "Solubility ranking among the four crystal forms", "setting": "[2]", "result": ">solubility of crystal form B of demethyleneberberine hydrochloride"}, {"measurement": "Stability in the high-humidity environment", "setting": "[3]", "result": "relatively stable"}, {"measurement": "X-Ray Powder Diffraction", "setting": "[3]; day 0", "result": "Unchanged"}, {"measurement": "Content (%)", "setting": "[3]; [8]", "result": 99.77, "unit": "%"}, {"measurement": "Content of Relevant Substance (%)", "setting": "[3]; [8]", "result": 0.23, "unit": "%"}, {"measurement": "X-Ray Powder Diffraction", "setting": "[3]; day 5", "result": "Unchanged"}, {"measurement": "Content (%)", "setting": "[3]; [9]", "result": 99.72, "unit": "%"}, {"measurement": "Content of Relevant Substance (%)", "setting": "[3]; [9]", "result": 0.28, "unit": "%"}, {"measurement": "X-Ray Powder Diffraction", "setting": "[3]; day 10", "result": "Unchanged"}, {"measurement": "Content (%)", "setting": "[3]; [10]", "result": 99.57, "unit": "%"}, {"measurement": "Content of Relevant Substance (%)", "setting": "[3]; [10]", "result": 0.43, "unit": "%"}, {"measurement": "X-Ray Powder Diffraction", "setting": "[4]; 60±2° C., day 0", "result": "Unchanged"}, {"measurement": "Content (%)", "setting": "[4]; [11]", "result": 99.18, "unit": "%"}, {"measurement": "Content of Relevant Substance (%)", "setting": "[4]; [11]", "result": 0.82, "unit": "%"}, {"measurement": "X-Ray Powder Diffraction", "setting": "[4]; 60±2° C., day 5", "result": "Unchanged"}, {"measurement": "Content (%)", "setting": "[4]; [12]", "result": 99.21, "unit": "%"}, {"measurement": "Content of Relevant Substance (%)", "setting": "[4]; [12]", "result": 0.79, "unit": "%"}, {"measurement": "Content (%)", "setting": "[4]; [13]", "result": 99.19, "unit": "%"}, {"measurement": "Content of Relevant Substance (%)", "setting": "[4]; [13]", "result": 0.81, "unit": "%"}, {"measurement": "X-Ray Powder Diffraction", "setting": "[4]; [13]", "result": "Unchanged"}, {"measurement": "Stability in the high-temperature environment", "setting": "[4]; 60±2° C., hydrochloride", "result": "relatively stable"}, {"measurement": "Stability under stability test conditions (summary)", "setting": "[4]; summary over high temperature, high humidity and strong light irradiation, hydrochloride", "result": "stable"}, {"measurement": "Solubility ranking among the four crystal forms", "setting": "[5]", "result": ">solubility of crystal form B of demethyleneberberine hydrochloride"}, {"measurement": "Solubility comparison of the four crystal forms (summary)", "setting": "[6]; summary over water, methanol and ethanol systems", "result": "highest; also recorded: >solubility of crystal form B of demethyleneberberine hydrochloride"}, {"measurement": "Solubility ranking among the four crystal forms", "setting": "[6]; water system, different temperatures, FIG. 13", "result": ">solubility of crystal form B of demethyleneberberine hydrochloride"}, {"measurement": "X-Ray Powder Diffraction", "setting": "[7]; day 0", "result": "Unchanged"}, {"measurement": "Content (%)", "setting": "[7]; [14]", "result": 99.57, "unit": "%"}, {"measurement": "Content of Relevant Substance (%)", "setting": "[7]; [14]", "result": 0.43, "unit": "%"}, {"measurement": "X-Ray Powder Diffraction", "setting": "[7]; day 5", "result": "Unchanged"}, {"measurement": "Content (%)", "setting": "[7]; [15]", "result": 99.49, "unit": "%"}, {"measurement": "Content of Relevant Substance (%)", "setting": "[7]; [15]", "result": 0.51, "unit": "%"}, {"measurement": "Content (%)", "setting": "[7]; [16]", "result": 99.55, "unit": "%"}, {"measurement": "Content of Relevant Substance (%)", "setting": "[7]; [16]", "result": 0.45, "unit": "%"}, {"measurement": "X-Ray Powder Diffraction", "setting": "[7]; [16]", "result": "Unchanged"}, {"measurement": "Stability in the strong light irradiation environment", "setting": "[7]; hydrochloride", "result": "relatively stable"}]}
